Melting point data for 88 compounds are collected here from a melting point compilation (Tetko et al.; mined from patent text by program, amines drawn as free bases though some values may be those of a salt).

As for `Cc1ccc2c(c1)CC(=O)c1cc(F)ccc1S2`, the melting point (as a rule, the temperature of the solid-liquid transition) lay in the range of 103 to 104 °C.
The same measure for `CCN1CCN(Cc2ccc(-c3nc4cc(OC)cc(OC)c4c(=O)[nH]3)cc2)CC1`: 278 to 280 °C; for `N#Cc1ccc(CN2CC=C(c3nc4ccccc4s3)CC2)cc1`: 165 to 166 °C.
To `O=C(NNc1ccc(C(F)(F)F)cc1)c1ccccc1F` belongs 163 to 165 °C.
To `COc1ccc(-c2cc3cc(OC)cc(CBr)c3o2)cc1` belongs 158 to 160 °C; to `Cn1nc(-c2cc(O)c(Cl)cc2F)c(Cl)c1C(F)(F)F`, 123 to 126 °C.
`C[Si](C)(C)C1=C(c2ccccc2)C(c2ccccc2)=C([Si](C)(C)C)[Si]1(C)C` registered a melting point of 100 °C.
The same measure for `O=c1oc2ccccc2c(O)c1SCCOc1ccccc1`: 120 to 121 °C; for `CCN(CC)C(=O)c1nc2cnn(CC)c2nc1-c1ccccc1`: 111 to 112 °C.
To `Cc1cccc(CSc2nc3cnccc3[nH]2)c1` belongs 166 to 168 °C; to `COC(=O)NC(=NS(=O)(=O)NC(C)C)SCc1ccccc1`, 76 to 78 °C; to `COc1ccc(C(=O)N2CCC(N(C)c3ccccc3Cl)c3ccccc32)cc1OC` (stereo not drawn), 146 to 147 °C.
To `CC(C)(F)Cn1c(CCO)nc2c(N)nc3cccnc3c21` belongs 224 to 225 °C; to `O=S(=O)(NS(=O)(=O)c1ccc(CCBr)cc1)c1ccccc1`, 148 to 150 °C.
Compound `O=C(O)c1cc(=O)c2oc3ccc(Cl)cc3c(=O)c2n1Cc1ccccc1` gave a melting point of 269 to 271 °C.
The same measure for `O=C(NN=Cc1cccc(C(F)(F)F)c1Cl)c1ccc(O)cc1`: 262 °C; for `COc1cc(OC)cc(-c2nc[nH]c2-c2ccc(OC)c(O)c2N)c1`: 148 °C.
For the compound `O=c1[nH]cc(C(c2ccccc2)c2ccccc2)cc1C(c1ccccc1)c1ccccc1`, the melting point stood at 240 °C.
The same measure for `CCCCC(CC)COc1c(-c2ccc(S(C)(=O)=O)cc2)cnn(-c2ccc(F)cc2)c1=O` (stereo not drawn): 120 to 122 °C; for `COc1ccc(C(=O)CI)cc1`: 63 to 65 °C; for `CCOCc1nc2c(N)nc3cc(OCc4nc5ccccc5s4)ccc3c2n1CC(C)(C)NS(C)(=O)=O`: 258 to 259 °C.
The same measure for `CC(=O)Nc1cccc(OCc2ccccc2)c1C`: 142 to 143 °C.
To `CC(C)(C)OC(=O)NC1CCCOCC=CC2CC2(C(=O)NS(=O)(=O)C2CC2)NC(=O)C2CC(OC(=O)C3CCCCC3)CN2C1=O` (stereo not drawn) belongs 128 to 130 °C; to `O=C(NCCCCN1CCC(c2ccc3c(c2OCCO)CCCC3)CC1)c1sc(-c2ccc(C(F)(F)F)cc2)nc1CO`, 157 to 159 °C; to `COC(=S)OCC(COC(=S)OC)OCn1cnc2c(=O)[nH]c(N)nc21`, 148 to 150 °C.
For `O=C(CCCl)Nc1ccc(F)c(F)c1`, the melting point is 76 °C.
`O=C(O)C(=O)c1ccc(OCCOc2cc3ccccc3cc2OCCO)cc1` registered a melting point of 176 to 177 °C.
The same measure for `O=C(Oc1cccc(F)c1)c1ccccc1F`: 37.5 to 38.5 °C; for `Cc1c(-c2ccc(C(=O)c3ccc(-c4sc5ccccc5c4C)nc3)cn2)sc2ccccc12`: 120 to 121 °C.
In the case of `NC(=O)c1ccc(F)c(O)c1F`, the melting point fell in the range of 161 to 162 °C.
To `COC(=O)CSc1cc(=O)n(C)c(=O)n1C` belongs 96 to 97.5 °C; to `CC(C)CC(=O)OC1(C(=O)CO)CCC2C3CC(C)C4=CC(=O)C=CC4(C)C3C(O)CC21C` (stereo not drawn), 164 °C.
To `O=C(c1ccc(F)cc1)N1CCN(CC(O)Cn2c3ccccc3c3ccccc32)CC1` (stereo not drawn) belongs 70 to 80 °C.
To `CCCOc1ccccc1-c1nc(O)cc(O)n1` belongs 224 to 225 °C.
`CS(=O)CCNC(=O)c1cccc(-c2ccc3c(c2)C(c2cc(Cl)ccc2Cl)CC3)c1` (stereo not drawn) yielded a melting point of 136 to 138 °C.
The same measure for `Cn1ccc2ccccc2c(=NO)c1=O`: 225 to 226 °C.
To `COc1ccc(-c2c3c(c(O)c4cc(OC)c(OC)c(OC)c24)C(=O)CCC3)cc1OC` belongs 164 to 166 °C; to `CSc1c(NCc2ccncc2)cnn(C(C)(C)C)c1=O`, 107 to 110 °C.
The same measure for `O=S(=O)(Cc1cc(F)cc(F)c1)NC1CN(C(c2ccc(Cl)cc2)c2cccnc2)C1` (racemic): 110 °C; for `Cc1oc(-c2ccccc2)nc1COc1ccc(COc2cccc(CC(=O)O)c2)cc1`: 159 to 160 °C; for `Nc1ccc(-c2c(-c3ccccc3)c(-c3ccccc3)c(-c3ccc(N)cc3)c(-c3ccccc3)c2-c2ccccc2)cc1`: 453 °C.
`O=C(O)CNC(=O)COc1c(F)cc(CSCCNS(=O)(=O)c2ccc(Cl)cc2)cc1F` had a melting point of 140 °C.
To `COc1ccc(Cn2ncc(N3CCOCC3)c(C=NO)c2=O)cc1` belongs 166 to 168 °C; to `CCCOC(=O)C(C)Oc1ccc(Oc2cnc3cc(F)ccc3n2)cc1F` (stereo not drawn), 49 to 51 °C.
To `O=C(O)CCn1nc(-c2c(-c3ccccc3)nn3ccccc23)ccc1=O` belongs 156 °C.
To `COC(=O)C1Cc2c([nH]c3ccccc23)C(c2ccc(Cl)c(Cl)c2)N1` (stereo not drawn) belongs 90 to 92 °C.
The compound `Cc1cnccc1Nn1ccc2ccccc21` returned a melting point of 78 to 80 °C.
To `CN(CCc1nc(-c2cc(C(C)(C)C)c(O)c(C(C)(C)C)c2)cs1)C(=O)OC(C)(C)C` belongs 204 °C; to `COc1cc(Cl)ccc1C(=O)NCCc1nc(-c2ccncn2)cc(=O)n1C`, 121 to 123 °C; to `CCCCCCCCCCCCCCCCC(=O)Nc1ccn(C2OC(CO)C(O)C2O)c(=O)n1` (stereo not drawn), 144 to 147 °C.
To `Cc1nn(-c2ccc(C(F)(F)F)cn2)cc1C=O` belongs 226 to 227 °C; to `CC(C)N1CC(C(S)Oc2cccc3cnccc23)OC1=O` (stereo not drawn), 237 to 239 °C; to `Nc1ccc(CO)cc1[N+](=O)[O-]`, 100 to 101 °C.
Compound `COc1ccc(NC(C)=O)c(Sc2ccc(C#N)cc2[N+](=O)[O-])c1` showed a melting point of 195 to 199 °C.
The same measure for `O=[N+]([O-])c1cc(-c2ccncc2)ccc1O`: 210 to 212 °C; for `COc1cc(C(F)(F)F)nn1-c1ccc(NC(=O)c2cccnc2F)cc1`: 153 to 154 °C; for `O=C1N(C2CCCCC2)CC(CCl)C1(c1ccccc1)c1ccccc1` (stereo not drawn): 124 to 126 °C.
To `CC(CCC(=O)C(C)(C)OO)C1CCC2C3CC=C4CC(O)CCC4(C)C3CCC12C` (stereo not drawn) belongs 146 to 147 °C; to `O=C(Cl)N1CC(Oc2ccc(Br)cc2)C1`, 77 to 78 °C; to `CCOC(=O)c1cn(C2CC2)c2c(F)c(N3CC(CNC(C)=O)C3)c(F)cc2c1=O`, 170 to 190 °C.
To `CCCCOC(=O)C(=O)c1ccc2c(c1)C1(C)CCN(C)C1N2C` (stereo not drawn) belongs 56 to 61 °C; to `CCC(Br)C(=O)NOCc1ccccc1` (stereo not drawn), 99.3 to 102 °C.
The compound `O=C(Nc1ccc(Oc2ccccc2)cc1)N1CCN(c2ccnc3c(Cl)cccc23)CC1` came in with a melting point of 174 to 175 °C.
To `CCS(=O)(=O)c1cc(C(=O)NCC2CCCN2CC2CCCC2)c(OC)cc1N` (stereo not drawn) belongs 140 to 141 °C; to `O=C1Nc2ccccc2C1C(=O)c1ccoc1` (stereo not drawn), 185 to 186 °C.
To `CCNC(=O)c1ccc(N2CCN(Cc3cnc4c(c3)[nH]c(=O)n3cccc43)CC2)c(F)c1` belongs 263 to 267 °C.
The same measure for `CS(=O)(=O)c1ccc(-n2cc(CO)nc2-c2ccc(Cl)cc2)cc1`: 205 to 208 °C; for `CCCCC(=O)c1cn(C(c2ccccc2)(c2ccccc2)c2ccccc2)cn1`: 115 to 118 °C; for `CCOC(=O)C1=C(C)NC(c2cscn2)=NC1c1ccc(F)cc1Cl` (stereo not drawn): 140 to 142 °C.
With `N#CCCc1cc(C(=O)O)cc(S(N)(=O)=O)c1Oc1ccccc1`, the melting point is 259 to 262 °C.
The same measure for `CC(C)Cc1oc(-c2ccc(F)cc2)nc1CC(=O)O`: 125 to 126 °C; for `N#CC1(N)CCc2ccc3ccccc3c2C1` (stereo not drawn): 75 to 78 °C.
To `COc1cccc(OC)c1C(=O)Nc1nnc(-c2cccc(O)c2)s1` belongs 243 to 245 °C; to `Fc1ccc(-c2[nH]cc(CCCN3CCNCC3)c2-c2ccncc2)cc1`, 162 to 164 °C.
The same measure for `COc1ccc(C23CC(c4ccccc4)C(=O)N2CCN3)cc1` (stereo not drawn): 150 °C.
With `COC(=O)CN1CC(N2C(=O)c3ccccc3C2=O)C1=O` (stereo not drawn), the melting point is 178 to 180 °C.
To `C=C(c1cccnc1)c1c(CC(=O)OC)[nH]c2ccccc12` belongs 154 to 157 °C; to `COc1cccc(Oc2ccc([N+](=O)[O-])c(C(=O)O)c2)c1`, 146 to 151 °C.
Regarding `C[C@]1(CN2CCN(NCc3ccc(C(F)(F)F)cc3)CC2)Cn2cc([N+](=O)[O-])nc2O1`, the melting point is 131 to 136 °C.
`FC1CNC(c2ccc3c(c2)OCO3)c2[nH]c3ccccc3c21` (stereo not drawn) showed a melting point of 172 °C.
The same measure for `COc1ccc2c(c1)c(CNc1ccccc1Oc1ccc(Cl)cc1)cn2C(C)=O`: 140 to 141 °C.
The same measure for `CCC(=O)NS(=O)(=O)c1cccc(-c2cc(-c3nc(-c4ccc(C(F)(F)F)cc4)cc(C(F)(F)F)n3)ccn2)c1`: 144 °C.
The same measure for `OC1CCSC(=S)N1Cc1ccco1` (stereo not drawn): 42 to 43 °C; for `Cc1nccc2c3ccc(O)cc3n(Cc3ccccc3)c12`: 234 °C; for `CN(C)NC(=O)N1CCC(=Cc2cc(C(C)(C)C)c(O)c(C(C)(C)C)c2)C1=O`: 133 to 134 °C.
`CCOC(=O)CCCC(=O)c1ccc(Oc2ccccc2)cc1` had a melting point of 61 to 62 °C.
The same measure for `COc1nc(N)nc2oc(C)cc12`: 173 to 175 °C.
The same measure for `CN(C)C=CC(=O)c1ccc(OC[C@H]2CO[C@](Cn3ccnc3)(c3ccc(Cl)cc3Cl)O2)cc1` (relative stereo): 145 °C.
